Experimental data: patent USRE49575E1, “Method for the preparation of (4S)-4-(4-cyano-2-methoxyphenyl)-5-ethoxy-2,8-dimethyl-l,4-dihydro-1-6-naphthyridine-3-carbox-amide and the purification thereof for use as an active pharmaceutical ingredient” (Bayer Pharma Aktiengesellschaft, priority 2014, dated 2023)

What was measured:
Format in all cases: physicochemical
[1] = Storage stability of polymorph I
[2] = TGA, loss of mass on heating; conditions: up to a temperature of 175° C.
Protocol: No other phase transitions were observed. A loss of mass of ca. 0.1% was observed up to a temperature of 175° C.

[3] = Stability and moisture absorption: storage at 85% and 97% rel. humidity, evaluated by DSC, TGA and XRPD; conditions: for mass change: after 12 months
Protocol: Stability and Moisture Absorption Samples of compound of the formula (I) in crystalline form of polymorph I were stored at 85% and 97% rel. humidity (25° C.). The samples were evaluated after 12 months by DSC, TGA and XRPD. After 12 months, a mass change of <0.1% is observed in both cases. […] According to DSC, TGA and XRPD, no difference exists in compound of the formula (I) in crystalline form of polymorph I.

[4] = 85% and 97% rel. humidity (25° C.), 12 months

CCOc1ncc(C)c2c1[C@H](c1ccc(C#N)cc1OC)C(C(N)=O)=C(C)N2 [(4S)-4-(4-cyano-2-methoxyphenyl)-5-ethoxy-2,8-dimethyl-1,4-dihydro-1,6-naphthyridine-3-carboxamide]
stability properties ([1]; even at high atmospheric humidity): very good stability properties | storage time without any problem ([1]; solid, crystalline polymorph I): > 2 years | loss of mass [2]: ca. 0.1% | absorption of water [3, 4]: no significant absorption of water | difference according to DSC, TGA and XRPD after storage [3, 4]: no difference | mass change ([3]; stored at 85% rel. humidity (25° C.)): < 0.1% | mass change ([3]; stored at 97% rel. humidity (25° C.)): < 0.1%
